Consider one compound from publication PMC4621900, “Ebselen inhibits QSOX1 enzymatic activity and suppresses invasion of pancreatic and renal cancer cell lines” (Oncotarget, 2015).

As a reminder, the IC50 is the point on the concentration scale where inhibition reaches its midpoint. Low readings indicate higher potency, high ones lower potency.

In one assay the target is glucose oxidase (GOx) (Aspergillus niger, UniProt P13006). The assay is described as follows: luminescent (ROS-Glo) H2O2-detection enzyme assay, counter-screen. The assay is classed as biochemical. (A counterscreen serves to expose hits that act by an unwanted route or on another target.)
The target in assay [1] is T1, Quiescin sulfhydryl oxidase 1 (QSOX1) (Homo sapiens, UniProt O00391).
T1 construct: amino acids 33–546 of QSOX1-S, N-terminal poly-histidine tag (rQSOX1)
T1 sequence (O00391 33-546): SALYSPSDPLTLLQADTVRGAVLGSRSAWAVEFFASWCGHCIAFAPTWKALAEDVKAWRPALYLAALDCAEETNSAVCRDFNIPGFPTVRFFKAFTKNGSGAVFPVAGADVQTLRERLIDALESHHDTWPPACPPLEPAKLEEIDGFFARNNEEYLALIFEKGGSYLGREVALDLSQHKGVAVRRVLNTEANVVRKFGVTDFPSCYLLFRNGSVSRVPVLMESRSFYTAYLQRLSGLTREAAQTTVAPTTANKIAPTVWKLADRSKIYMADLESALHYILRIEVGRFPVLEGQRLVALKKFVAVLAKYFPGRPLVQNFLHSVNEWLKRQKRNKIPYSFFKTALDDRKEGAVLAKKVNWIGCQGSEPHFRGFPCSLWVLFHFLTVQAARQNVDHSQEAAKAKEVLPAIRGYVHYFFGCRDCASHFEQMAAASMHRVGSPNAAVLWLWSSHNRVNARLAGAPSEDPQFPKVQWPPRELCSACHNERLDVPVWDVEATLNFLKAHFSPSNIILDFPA
The assay is described as follows: intact-protein LC-ESI-MS of covalent adducts and maleimide protection assay; IC50 from purified-enzyme luminescent H2O2 assay, confirmed by HVA fluorescence assay. The assay is classed as biochemical.

glucose oxidase (GOx), sequence (P13006 17-605): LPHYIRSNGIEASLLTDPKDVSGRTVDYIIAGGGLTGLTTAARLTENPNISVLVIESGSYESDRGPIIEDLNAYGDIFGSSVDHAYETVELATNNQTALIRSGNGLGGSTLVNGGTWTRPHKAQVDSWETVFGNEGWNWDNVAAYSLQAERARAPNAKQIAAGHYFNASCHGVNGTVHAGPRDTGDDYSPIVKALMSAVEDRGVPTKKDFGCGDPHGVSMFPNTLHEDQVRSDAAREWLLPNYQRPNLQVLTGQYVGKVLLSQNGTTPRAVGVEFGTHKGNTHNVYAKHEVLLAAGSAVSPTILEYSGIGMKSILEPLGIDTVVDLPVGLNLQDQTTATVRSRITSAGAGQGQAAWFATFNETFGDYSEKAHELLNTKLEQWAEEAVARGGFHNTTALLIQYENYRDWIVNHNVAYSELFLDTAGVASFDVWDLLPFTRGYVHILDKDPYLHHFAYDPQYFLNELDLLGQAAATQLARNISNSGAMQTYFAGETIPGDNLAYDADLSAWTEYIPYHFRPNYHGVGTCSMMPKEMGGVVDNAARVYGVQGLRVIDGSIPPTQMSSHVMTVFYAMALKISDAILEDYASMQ

As to `O=c1c2ccccc2[se]n1-c1ccccc1` [ebselen, 2-phenyl-1,2-benzisoselenazol-3(2H)-one], the IC50 at glucose oxidase (GOx) worked out at 20.5 µM; in assay [1], 5.4 µM.
